Measured values reported in ChEMBL document CHEMBL1201862, “PubChem BioAssay data set” (2004).
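A five-concentration, 48-hour dose response in 96-well plates underlies each endpoint, interpolated linearly between surrounding concentrations. GI50 marks 50% less growth.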 Calls of active or inactive are those of the source. Rule as the data show it: active = GI50 up to about 1.1 µM and inactive = higher.

Columns and labels:
Assay in all cases: DTP human tumour cell line panel, 48 h
DU-145 = tested on: DU-145
SNB-75 = tested on: SNB-75
BT-549 = tested on: BT-549
CCRF-CEM = tested on: CCRF-CEM
EKVX = tested on: EKVX
NCI-H522 = tested on: NCI-H522
K562 = tested on: K562
UO-31 = tested on: UO-31
CAKI-1 = tested on: CAKI-1
UACC-257 = tested on: UACC-257
HCT-116 = tested on: HCT-116
SK-MEL-5 = tested on: SK-MEL-5
PC-3 = tested on: PC-3
MOLT-4 = tested on: MOLT-4
A498 = tested on: A498
SF-268 = tested on: SF-268
Hs-578T = tested on: Hs-578T
KM12 = tested on: KM12
OVCAR-4 = tested on: OVCAR-4
U-251 = tested on: U-251
HL-60 = tested on: HL-60
MDA-MB-231 = tested on: MDA-MB-231
NCI-H23 = tested on: NCI-H23
OVCAR-3 = tested on: OVCAR-3
SF-295 = tested on: SF-295
HOP-62 = tested on: HOP-62
SK-MEL-2 = tested on: SK-MEL-2
MCF7 = tested on: MCF7
RPMI-8226 = tested on: RPMI-8226
M14 = tested on: M14
NCI/ADR-RES = tested on: NCI/ADR-RES
COLO 205 = tested on: COLO 205
IGROV-1 = tested on: IGROV-1
SW-620 = tested on: SW-620
786-0 = tested on: 786-0
RXF 393 = tested on: RXF 393
SN12C = tested on: SN12C
UACC-62 = tested on: UACC-62
T47D = tested on: T47D
HT-29 = tested on: HT-29
SK-OV-3 = tested on: SK-OV-3
HOP-92 = tested on: HOP-92
MDA-MB-435 = tested on: MDA-MB-435
ACHN = tested on: ACHN
OVCAR-8 = tested on: OVCAR-8
SK-MEL-28 = tested on: SK-MEL-28
HCC 2998 = tested on: HCC 2998
OVCAR-5 = tested on: OVCAR-5
HCT-15 = tested on: HCT-15
A549 = tested on: A549
SF-539 = tested on: SF-539
SNB-19 = tested on: SNB-19
TK-10 = tested on: TK-10
NCI-H226 = tested on: NCI-H226
SR = tested on: SR
NCI-H460 = tested on: NCI-H460
MDA-N = tested on: MDA-N
LOX IMVI = tested on: LOX IMVI
Malme-3M = tested on: Malme-3M

COc1ccc2c(c1)CCN=C2Cc1ccccc1CCCl
GI50 (DU-145): 50.5 µM (inactive) | GI50 (SNB-75): 31.3 µM (inactive) | GI50 (BT-549): 44.2 µM (inactive) | GI50 (CCRF-CEM): 20.7 µM (inactive) | GI50 (EKVX): 37.2 µM (inactive) | GI50 (NCI-H522): 19.6 µM (inactive) | GI50 (K562): 18 µM (inactive) | GI50 (UO-31): 16.5 µM (inactive) | GI50 (CAKI-1): 22.1 µM (inactive) | GI50 (UACC-257): 30.7 µM (inactive) | GI50 (HCT-116): 11.9 µM (inactive) | GI50 (SK-MEL-5): 17.5 µM (inactive) | GI50 (PC-3): 25.8 µM (inactive) | GI50 (MOLT-4): 23.7 µM (inactive) | GI50 (A498): 51.9 µM (inactive) | GI50 (SF-268): 21.8 µM (inactive) | GI50 (Hs-578T): 62.4 µM (inactive) | GI50 (KM12): 23.1 µM (inactive) | GI50 (OVCAR-4): 22 µM (inactive) | GI50 (U-251): 33.1 µM (inactive) | GI50 (HL-60): 14.2 µM (inactive) | GI50 (MDA-MB-231): 15.4 µM (inactive) | GI50 (NCI-H23): 20.8 µM (inactive) | GI50 (OVCAR-3): 33.9 µM (inactive) | GI50 (SF-295): 20.7 µM (inactive) | GI50 (HOP-62): 36.5 µM (inactive) | GI50 (SK-MEL-2): 25.5 µM (inactive) | GI50 (MCF7): 26 µM (inactive) | GI50 (RPMI-8226): 17.6 µM (inactive) | GI50 (M14): 19.1 µM (inactive) | GI50 (NCI/ADR-RES): 19.1 µM (inactive) | GI50 (COLO 205): 17.5 µM (inactive) | GI50 (IGROV-1): 25.8 µM (inactive) | GI50 (SW-620): 26.1 µM (inactive) | GI50 (786-0): 25.3 µM (inactive) | GI50 (RXF 393): 27.8 µM (inactive) | GI50 (SN12C): 24.3 µM (inactive) | GI50 (UACC-62): 22.5 µM (inactive) | GI50 (T47D): 17.7 µM (inactive) | GI50 (HT-29): 12.2 µM (inactive) | GI50 (SK-OV-3): 39.3 µM (inactive) | GI50 (HOP-92): 23.7 µM (inactive) | GI50 (MDA-MB-435): 17.1 µM (inactive) | GI50 (ACHN): 30.1 µM (inactive) | GI50 (OVCAR-8): 23.4 µM (inactive) | GI50 (SK-MEL-28): 32.6 µM (inactive) | GI50 (HCC 2998): 17.1 µM (inactive) | GI50 (OVCAR-5): 40.5 µM (inactive) | GI50 (HCT-15): 20.6 µM | GI50 (A549): 28.6 µM (inactive) | GI50 (SF-539): 20.5 µM (inactive) | GI50 (SNB-19): 25.8 µM (inactive) | GI50 (TK-10): 53.2 µM (inactive) | GI50 (NCI-H226): 26.2 µM (inactive) | GI50 (SR): 51.2 µM (inactive) | GI50 (NCI-H460): 15.4 µM (inactive)

CC(C)(C)OC(=O)NCC(=O)N1CCN(C(=O)CNC(=O)OC(C)(C)C)CC1
GI50 (DU-145): > 100 µM (inactive) | GI50 (BT-549): > 100 µM (inactive) | GI50 (CCRF-CEM): > 100 µM (inactive) | GI50 (EKVX): > 100 µM (inactive) | GI50 (NCI-H522): 2.55 µM (inactive) | GI50 (K562): > 100 µM (inactive) | GI50 (UO-31): > 100 µM (inactive) | GI50 (CAKI-1): > 100 µM (inactive) | GI50 (UACC-257): > 100 µM (inactive) | GI50 (HCT-116): > 100 µM (inactive) | GI50 (SK-MEL-5): > 100 µM (inactive) | GI50 (PC-3): > 100 µM (inactive) | GI50 (MOLT-4): > 100 µM (inactive) | GI50 (A498): > 100 µM (inactive) | GI50 (SF-268): 18.7 µM (inactive) | GI50 (KM12): > 100 µM (inactive) | GI50 (OVCAR-4): > 100 µM (inactive) | GI50 (U-251): > 100 µM (inactive) | GI50 (HL-60): > 100 µM (inactive) | GI50 (MDA-MB-231): > 100 µM (inactive) | GI50 (NCI-H23): > 100 µM (inactive) | GI50 (OVCAR-3): > 100 µM (inactive) | GI50 (SF-295): > 100 µM (inactive) | GI50 (HOP-62): > 100 µM (inactive) | GI50 (SK-MEL-2): > 100 µM (inactive) | GI50 (MDA-N): > 100 µM (inactive) | GI50 (MCF7): > 100 µM (inactive) | GI50 (RPMI-8226): > 100 µM (inactive) | GI50 (M14): > 100 µM (inactive) | GI50 (NCI/ADR-RES): > 100 µM (inactive) | GI50 (COLO 205): > 100 µM (inactive) | GI50 (IGROV-1): > 100 µM (inactive) | GI50 (SW-620): > 100 µM (inactive) | GI50 (786-0): > 100 µM (inactive) | GI50 (SN12C): > 100 µM (inactive) | GI50 (UACC-62): > 100 µM (inactive) | GI50 (T47D): > 100 µM (inactive) | GI50 (HT-29): > 100 µM (inactive) | GI50 (SK-OV-3): > 100 µM (inactive) | GI50 (HOP-92): > 100 µM (inactive) | GI50 (MDA-MB-435): > 100 µM (inactive) | GI50 (ACHN): > 100 µM (inactive) | GI50 (OVCAR-8): > 100 µM (inactive) | GI50 (SK-MEL-28): > 100 µM (inactive) | GI50 (HCC 2998): > 100 µM (inactive) | GI50 (OVCAR-5): > 100 µM (inactive) | GI50 (LOX IMVI): > 100 µM (inactive) | GI50 (HCT-15): > 100 µM | GI50 (A549): > 100 µM (inactive) | GI50 (SF-539): > 100 µM (inactive) | GI50 (SNB-19): > 100 µM (inactive) | GI50 (TK-10): > 100 µM (inactive) | GI50 (NCI-H226): > 100 µM (inactive) | GI50 (SR): > 100 µM (inactive)

O=S(=O)(O)C1CCC(O)C2NCCCC21 (stereo unspecified)
GI50 (DU-145): > 100 µM (inactive) | GI50 (SNB-75): > 100 µM (inactive) | GI50 (BT-549): > 100 µM (inactive) | GI50 (EKVX): > 100 µM (inactive) | GI50 (NCI-H522): > 100 µM (inactive) | GI50 (K562): > 100 µM (inactive) | GI50 (UO-31): > 100 µM (inactive) | GI50 (CAKI-1): > 100 µM (inactive) | GI50 (UACC-257): > 100 µM (inactive) | GI50 (HCT-116): > 100 µM (inactive) | GI50 (SK-MEL-5): > 100 µM (inactive) | GI50 (PC-3): > 100 µM (inactive) | GI50 (MOLT-4): > 100 µM (inactive) | GI50 (A498): > 100 µM (inactive) | GI50 (SF-268): > 100 µM (inactive) | GI50 (Hs-578T): > 100 µM (inactive) | GI50 (KM12): > 100 µM (inactive) | GI50 (OVCAR-4): > 100 µM (inactive) | GI50 (U-251): > 100 µM (inactive) | GI50 (HL-60): 20.7 µM (inactive) | GI50 (MDA-MB-231): > 100 µM (inactive) | GI50 (OVCAR-3): > 100 µM (inactive) | GI50 (Malme-3M): > 100 µM (inactive) | GI50 (SF-295): > 100 µM (inactive) | GI50 (HOP-62): > 100 µM (inactive) | GI50 (SK-MEL-2): > 100 µM (inactive) | GI50 (MCF7): > 100 µM (inactive) | GI50 (RPMI-8226): > 100 µM (inactive) | GI50 (M14): > 100 µM (inactive) | GI50 (NCI/ADR-RES): > 100 µM (inactive) | GI50 (COLO 205): > 100 µM (inactive) | GI50 (IGROV-1): > 100 µM (inactive) | GI50 (SW-620): > 100 µM (inactive) | GI50 (786-0): > 100 µM (inactive) | GI50 (RXF 393): > 100 µM (inactive) | GI50 (SN12C): > 100 µM (inactive) | GI50 (UACC-62): > 100 µM (inactive) | GI50 (T47D): > 100 µM (inactive) | GI50 (HT-29): > 100 µM (inactive) | GI50 (SK-OV-3): > 100 µM (inactive) | GI50 (HOP-92): > 100 µM (inactive) | GI50 (MDA-MB-435): > 100 µM (inactive) | GI50 (ACHN): > 100 µM (inactive) | GI50 (OVCAR-8): > 100 µM (inactive) | GI50 (SK-MEL-28): > 100 µM (inactive) | GI50 (HCC 2998): > 100 µM (inactive) | GI50 (OVCAR-5): > 100 µM (inactive) | GI50 (LOX IMVI): > 100 µM (inactive) | GI50 (HCT-15): > 100 µM | GI50 (A549): > 100 µM (inactive) | GI50 (SF-539): > 100 µM (inactive) | GI50 (SNB-19): > 100 µM (inactive) | GI50 (TK-10): > 100 µM (inactive) | GI50 (NCI-H226): > 100 µM (inactive) | GI50 (SR): > 100 µM (inactive) | GI50 (NCI-H460): > 100 µM (inactive)
